Assay results taken from US6534278B1, “Screening for antibiotics” (priority 1997, dated 2003).
Values after ≈ are worked out from the molar mass of the structure shown. Where a SMILES comes first, the peptide text is derived from it. Bridges are numbered along the chain shown (N, C = ends). [ ]: non-standard residue; d: D form. The star is where a group is joined. Ileψ(thiazoline)Cys = CC[C@H](C)[C@H](N)C1=N[C@H](C(=O)*)CS1; dOrn = NCCC[C@@H](N)C(=O)O; Dab = NCC[C@H](N)C(=O)O

Key:
[1] = tested on: E. coli strain D22 carrying plasmid pNU305 (ampC and ampR genes from Citrobacter freundii, envA-); test: β-lactamase induction screen (nitrocefin, OD 490 nm); assay type: cell-based; settings: for [Induction] (limit of detection of β-lactamase induction): lowest concentration at which β-lactamase induction begins to increase, average over trials
Procedure: Screening Strain: E. coli strain D22 carrying plasmid pNU305 which contains the ampC and ampR genes from Citrobacter freundii, the envA-allele, a colEI origin of replication, and a tetracycline resistance determinant was grown in Luria Broth (LB; 5 g yeast extract, 10 g tryptone, and 10 g sodium chloride per liter of purified water) supplemented with E salts (400 μl E salts per 100 ml LB; the E salts contained-10 g magnesium sulfate heptahydrate, 100 g citric acidmonohydrate, 500 g anhydrous dibasic potassium phosphate, and 175 g of monosodium monoammonium phosphate tetrahydrate per liter of purified water).
Reaction Buffer: Nitrocefin was dissolved in dimethylsulfoxide (DMSO) to a concentration of 25 mg/ml and stored in 1 ml aliquots at −80° C. To prepare a reaction buffer, one of the nitrocefin/DMSO aliquots was added to 50 ml Z buffer with detergents (16.1 g dibasic sodium phosphate heptahydrate, 5.5 g monobasic sodium phosphate monohydrate, 0.75 g potassium chloride, 246 mg magnesium sulfate heptahydrate, 200 mg CTAB, and 100 mg sodium deoxycholate per liter, with the pH adjusted to 7.0) and the mixture was vortexed vigorously. The resulting suspension was filtered through Q5 filter paper (Fisher, Cat. No. 09-790-2e) to remove insoluble material. The filtered reaction buffer was stored at −80° C. until it was needed.
Growth Regimen: A single colony of the E. coli (i.e., a starter colony) was streaked onto an LB plate (with tetracycline) and incubated overnight at 37° C. Cells from the starter colony were then used to inoculate multiple colonies in LB (without tetracycline) to give a cell density no higher than 0.05 OD at 650 nm. The cells were grown at 37° C. under aerating conditions (i.e., shaken at 200 rpm in Erlenmeyer flasks having a volume of at least 10 times that of the culture.
Screening: When the cells had grown to a cell density of 0.25 to 0.8 OD at 650 nm, the culture was diluted to 0.25 OD. 80 μl of the diluted culture was added to each well of a microtiter plate containing 20 μl samples from a simulated natural product library, using an automated liquid dispensing robot from Titrtek (Huntsville, Ala.).
A positive control compound (25 μg/ml fosfomycin) was added to some of the wells and other wells were left untreated, as negative control samples. The samples were incubated on the plate for one hour at 37° C. without shaking.
Assay: 10 μl aliquots were transferred from each well to a second microtiter plate, using a Quadra 96 Model 320 robot (TomTec, Hamden, Conn.). 90 μl of the reaction buffer prepared above was added to each well using a automated liquiddispensing robot (Titrtek, Huntsville, Ala.). The OD of the samples was immediately read at […] in a plate reader (Biorad, Model 3550) to obtain zero point β-lactamase levels. The OD was measured again after incubating the plates at room temperature for 90 minutes (room temperature near 30° C.) or 120 minutes (room temperature below 30° C.).
Data Analysis: An induction value, I, was determined for each sample according to the following formula: I=(OD of sample—median OD)/(OD of induced cells—median OD); where the median OD was determined for each plate and the OD of induced cells was defined as the average of the readings from the control wells exposed to the 25 μg/ml fosfomycin. […] Any sample having I≧0.2 was considered to be positive. Since the assay is calorimetric, the zero-point levels were subtracted from the OD readings.
The same mixtures were also screened for increased β-lactamase using the new methods. The β-lactamase produced was plotted against the logarithm of ramoplanin concentration. FIGS. 3A and 3B show two examples of such. plots. As shown by the leftmost 6 and 7 solid black circles in FIGS. 3A and 3B, respectively, these plots show no effect of low concentrations of added ramoplanin on β-lactamase induction, up to a ramoplanin concentration of about 0.8 to 1.6 μg/ml. At this level, the β-lactamase induction level began to increase. […]

[2] = tested on: envA-cells containing the pNU305 plasmid; test: microbe, parasite or virus in culture
Procedure: The optical density (OD) of each reaction mixture was measured at 655 nm. The lowest concentration of ramoplanin for which the OD reading was zero was taken to be the MIC.

[3] = lowest concentration with OD 655 nm of zero, 5×10^5 cells/ml, 18 hours, 37° C.

Molecule | [Induction] (limit of detection of β-lactamase induction) [1] | MIC [2, 3] | MIC ([2]; Escherichia coli, 18 h) | detection concentration times less than the minimum inhibitory concentration (MIC / limit of detection) ([1]; 20/1.8) | [Induction] (limit of detection of β-lactamase induction) ([1]; listed as ramoplanin) | MIC ([2]; lowest concentration with OD 655 nm of zero, 5×10^5 cells/ml, 18 hours, 37° C., listed as ramoplanin)
CC[C@H](C)[C@H](N)C1=N[C@H](C(=O)N[C@@H](CC(C)C)C(=O)N[C@H](CCC(=O)O)C(=O)N[C@H](C(=O)N[C@H]2CCCCNC(=O)[C@H](CC(N)=O)NC(=O)[C@@H](CC(=O)O)NC(=O)[C@H](Cc3cnc[nH]3)NC(=O)[C@@H](Cc3ccccc3)NC(=O)[C@H]([C@@H](C)CC)NC(=O)[C@@H](CCCN)NC2=O)[C@@H](C)CC)CS1 [Bacitracin] ({Ileψ(thiazoline)Cys}-L[dE]IK[dOrn]I[dF]H[dD]N; lactam 4-C) | 1.6 µg/mL | 12.5 µg/mL (≈ 8.79 µM) | – | – | – | –
CO[C@@]1(NC(=O)Cc2cccs2)C(=O)N2C(C(=O)O)=C(COC(N)=O)CS[C@@H]21 [Cefoxitin] | 2.5 µg/mL | – | 7 µg/mL (≈ 16.4 µM) | – | – | –
O=C(O)c1cn(C2CC2)c2cc(N3CCNCC3)c(F)cc2c1=O [Ciprofloxacin] | none | – | 0.01 µg/mL (≈ 0.0302 µM) | – | – | –
N[C@@H]1CON=C1O [Cycloserine] | 20 µg/mL | – | 12.5 µg/mL (≈ 122 µM) | – | – | –
CC[C@H]1OC(=O)[C@H](C)[C@@H](O[C@H]2C[C@@](C)(OC)[C@@H](O)[C@H](C)O2)[C@H](C)[C@@H](O[C@@H]2O[C@H](C)C[C@H](N(C)C)[C@H]2O)[C@](C)(O)C[C@@H](C)C(=O)[C@H](C)[C@@H](O)[C@]1(C)O [Erythromycin] | none | – | 0.8 µg/mL (≈ 1.09 µM) | – | – | –
C[C@@H]1O[C@@H]1P(=O)(O)O [Fosfomycin] | 0.7 µg/mL | – | 0.7 µg/mL (≈ 5.07 µM) | – | – | –
CC[C@@]1([C@@H]2O[C@@H]([C@H]3O[C@@](O)(CO)[C@H](C)C[C@@H]3C)C[C@@H]2C)CC[C@H]([C@]2(C)CC[C@]3(C[C@H](O)[C@@H](C)[C@@H]([C@@H](C)[C@@H](OC)[C@H](C)C(=O)O)O3)O2)O1 [Monensin] | none | – | > 100 µg/mL | – | – | –
CC(C)C[C@@H]1NC(=O)[C@@H](Cc2ccccc2)NC(=O)[C@H](CCN)NC(=O)[C@@H](NC(=O)[C@H](CCN)NC(=O)[C@@H](N)[C@@H](C)O)CCNC(=O)[C@H]([C@@H](C)O)NC(=O)[C@H](CCN)NC(=O)[C@H](CCN)NC1=O [Polymyxin B nonapeptide] (H-T[Dab][Dab][Dab][dF]L[Dab][Dab]T; lactam 3-C; N-terminus assumed) | 6.3 µg/mL | >100 µg/mL | – | – | – | –
CO[C@H]1/C=C/O[C@@]2(C)Oc3c(C)c(O)c4c(O)c(c(/C=N/N5CCN(C)CC5)c(O)c4c3C2=O)NC(=O)/C(C)=C\C=C\[C@H](C)[C@H](O)[C@@H](C)[C@@H](O)[C@@H](C)[C@H](OC(C)=O)[C@@H]1C [Rifampicin] | – | – | 0.06 µg/mL (≈ 0.0729 µM) | – | – | –
CCCCCCCCCCCCOS(=O)(=O)[O-].[Na+] [Sodium dodecyl sulfate] | 4 µg/mL | – | 2 µg/mL | – | – | –
CN[C@H](CC(C)C)C(=O)N[C@H]1C(=O)N[C@@H](CC(N)=O)C(=O)N[C@H]2C(=O)N[C@H]3C(=O)N[C@H](C(=O)N[C@H](C(=O)O)c4cc(O)cc(O)c4-c4cc3ccc4O)[C@H](O)c3ccc(c(Cl)c3)Oc3cc2cc(c3O[C@@H]2O[C@H](CO)[C@@H](O)[C@H](O)[C@H]2O[C@H]2C[C@](C)(N)[C@H](O)[C@H](C)O2)Oc2ccc(cc2Cl)[C@H]1O [Vancomycin] | 4 µg/mL | – | 10 µg/mL (≈ 6.9 µM) | – | – | –
Moenomycin | 1 µg/mL | 2 µg/mL | – | – | – | –
Polymyxin B sulfate | 0.2 µg/mL | 0.4 µg/mL | – | – | – | –
Ramoplanin | 1.8 µg/mL | 20 µg/mL | – | about 11 times | about 1.8 μg/ml | about 20 μg/ml
Triton X-100 | 100 µg/mL | 500 µg/mL | – | – | – | –
